Assay results reported in US20220317138A1, “METHODS FOR DETERMINING THE CONCENTRATION OF A CARBAPENEM ANTIBIOTIC IN A BIOLOGICAL SAMPLE” (priority 2019, published 2022).
Where two headings read alike, the source gives them in different places. Numbered stars: 1 amine (or outer) side, 2 acyl side, 3 side chain; on linkers, the order of the positions; unused ones are H or OH. Bridge positions count the residues as written; N and C are the ends. Square brackets hold non-standard residues; d marks the D form. Peptide text beside a SMILES is read from it. * marks the point of attachment. pTerphenylCO(4''-OnC5H11) = CCCCCOc1ccc(-c2ccc(-c3ccc(C(=O)*)cc3)cc2)cc1; Orn(4R-OH,5R-OH) = O=C([C@H](C[C@@H](O)[C@@H](O)N[*:3])N[*:1])[*:2]; hTyr(3S-OH,4S-OH) = N[C@H](C(=O)O)[C@H](O)[C@@H](O)c1ccc(O)cc1; Pro(3S-OH,4S-Me) = C[C@H]1CN[C@H](C(=O)O)[C@H]1O; Hyp = O=C(O)[C@@H]1C[C@@H](O)CN1

Tests used:
Type in all cases: biochemical
[1] = biological target: T1, beta-lactamase class D OXA-48 (Klebsiella pneumoniae, UniProt Q6XEC0); conditions: for Average [meropenem]: average of three replicates
[2] = biological target: P99 beta-lactamase (class C) (Enterobacter cloacae, UniProt P05364); conditions: nitrocefin reporter
[3] = biological target: T1, beta-lactamase class D OXA-48; conditions: for Accuracy <> (average) / [Meropenem] <> (average): average of 5 replicates
From the text: The specificity (or selectivity) of the method according to an embodiment of the invention is defined as the ability of the method to measure the concentration of a carbapenem antibiotic (such as meropenem) in presence of an excess of another beta-lactam antibiotic (second beta-lactam) currently used in ICUs (see Table 4).
To determine the specificity of the method illustrating the invention for carbapenem antibiotics, in particular meropenem, versus other beta-lactam antibiotics, stock-solutions of second beta-lactam antibiotics were prepared in water.
An excess of a second beta-lactam concentration of up to 10 times the concentration of meropenem was used.

[4] = second drug alone in ultrafiltrated serum at 10 times recommended blood concentration, result expressed as meropenem concentration, theoretically zero
[5] = second drug alone in ultrafiltrated serum at 10 times recommended blood concentration, result expressed as meropenem concentration, theoretically zero, replicate 1
[6] = second drug alone in ultrafiltrated serum at 10 times recommended blood concentration, result expressed as meropenem concentration, theoretically zero, replicate 2
[7] = second drug alone in ultrafiltrated serum at 10 times recommended blood concentration, result expressed as meropenem concentration, theoretically zero, replicate 3
[8] = second drug alone in ultrafiltrated serum at 10 times recommended blood concentration, […]
[9] = Meropenem 1.2 mg/L, second β-lactam 10.0 mg/L (8.4 times excess)
[10] = Meropenem 20.0 mg/L, second β-lactam 200.0 mg/L (10 times excess)

T1 sequence (Q6XEC0 23-265 limits assumed): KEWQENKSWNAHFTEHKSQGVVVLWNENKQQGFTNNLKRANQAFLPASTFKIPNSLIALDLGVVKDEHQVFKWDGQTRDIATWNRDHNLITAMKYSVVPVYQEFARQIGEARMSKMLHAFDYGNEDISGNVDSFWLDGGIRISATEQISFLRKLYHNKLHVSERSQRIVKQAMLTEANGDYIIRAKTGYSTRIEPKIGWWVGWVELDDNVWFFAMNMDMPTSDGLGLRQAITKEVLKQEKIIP
Sequence of P99 beta-lactamase (class C) (P05364 21-381): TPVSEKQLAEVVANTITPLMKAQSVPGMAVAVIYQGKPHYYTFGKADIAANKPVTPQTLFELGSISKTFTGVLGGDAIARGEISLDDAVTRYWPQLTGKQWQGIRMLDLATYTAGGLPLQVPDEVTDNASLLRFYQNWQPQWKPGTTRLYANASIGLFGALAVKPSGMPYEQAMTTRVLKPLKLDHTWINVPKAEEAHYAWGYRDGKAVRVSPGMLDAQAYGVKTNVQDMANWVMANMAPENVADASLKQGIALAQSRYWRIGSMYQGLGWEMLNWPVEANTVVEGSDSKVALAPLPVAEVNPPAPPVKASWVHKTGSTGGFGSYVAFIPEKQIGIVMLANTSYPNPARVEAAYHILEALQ

## C[C@]12CCC(=O)C=C1CC[C@@H]1[C@@H]2[C@@H](O)C[C@@]2(C)[C@H]1CC[C@]2(O)C(=O)COC(=O)CCC(=O)O [Solu-cortef]
[1]; [4]
  Average [meropenem]: -0.03 mg/L
[1]; [5]
  [meropenem] (mg/L) Replicates 1: -0.10 mg/L
[1]; [6]
  [meropenem] (mg/L) Replicates 2: 0.02 mg/L
[1]; [7]
  [meropenem] (mg/L) Replicates 3: 0.00 mg/L

## CCCCc1oc2ccccc2c1C(=O)c1cc(I)c(OCCN(CC)CC)c(I)c1 [Cordarone]
[1]; [4]
  Average [meropenem]: -0.16 mg/L
[1]; [5]
  [meropenem] (mg/L) Replicates 1: -0.16 mg/L
[1]; [6]
  [meropenem] (mg/L) Replicates 2: -0.15 mg/L
[1]; [7]
  [meropenem] (mg/L) Replicates 3: -0.18 mg/L

## NS(=O)(=O)c1cc(C(=O)O)c(NCc2ccco2)cc1Cl [Lasix]
[1]; [4]
  Average [meropenem]: -0.12 mg/L
[1]; [5]
  [meropenem] (mg/L) Replicates 1: -0.13 mg/L
[1]; [6]
  [meropenem] (mg/L) Replicates 2: -0.15 mg/L
[1]; [7]
  [meropenem] (mg/L) Replicates 3: -0.09 mg/L

## CC[C@H](C)C[C@H](C)CCCCCCCCC(=O)N[C@H]1C[C@@H](O)[C@@H](NCCN)NC(=O)[C@@H]2[C@@H](O)CCN2C(=O)[C@H]([C@H](O)CCN)NC(=O)[C@H]([C@H](O)[C@@H](O)c2ccc(O)cc2)NC(=O)[C@@H]2C[C@@H](O)CN2C(=O)[C@H]([C@@H](C)O)NC1=O [Caspofungin]
[1]
  [meropenem] (mg/L) Replicates 1: 0.03 mg/L
  [meropenem] (mg/L) Replicates 2: 0.06 mg/L
  [meropenem] (mg/L) Replicates 3: 0.07 mg/L
[1]; [8]
  Average [meropenem]: 0.05 mg/L

## CCCCCOc1ccc(-c2ccc(-c3ccc(C(=O)N[C@H]4C[C@@H](O)[C@@H](O)NC(=O)[C@@H]5[C@@H](O)[C@@H](C)CN5C(=O)[C@H]([C@@H](C)O)NC(=O)[C@H]([C@H](O)[C@@H](O)c5ccc(O)cc5)NC(=O)[C@@H]5C[C@@H](O)CN5C(=O)[C@H]([C@@H](C)O)NC4=O)cc3)cc2)cc1 [Anidulafungin] ({pTerphenylCO(4''-OnC5H11)}-[Orn(4R-OH,5R-OH)]T[Hyp][hTyr(3S-OH,4S-OH)]T[Pro(3S-OH,4S-Me)]; lactam 1-C)
[1]
  [meropenem] (mg/L) Replicates 1: 0.09 mg/L
  [meropenem] (mg/L) Replicates 2: 0.06 mg/L
  [meropenem] (mg/L) Replicates 3: 0.14 mg/L
[1]; [8]
  Average [meropenem]: 0.10 mg/L

## Cc1[nH]c(=O)c(C#N)cc1-c1ccncc1 [Milrinone]
[1]; [4]
  Average [meropenem]: 0.09 mg/L
[1]; [5]
  [meropenem] (mg/L) Replicates 1: 0.14 mg/L
[1]; [6]
  [meropenem] (mg/L) Replicates 2: 0.06 mg/L
[1]; [7]
  [meropenem] (mg/L) Replicates 3: 0.06 mg/L

## [Ca+2].[Cl-].[Cl-] [Calciclo]
[1]
  [meropenem] (mg/L) Replicates 1: 0.05 mg/L
  [meropenem] (mg/L) Replicates 2: -0.04 mg/L
  [meropenem] (mg/L) Replicates 3: -0.09 mg/L
[1]; [8]
  Average [meropenem]: -0.03 mg/L

## O=C1CN=C(c2ccccc2Cl)c2cc([N+](=O)[O-])ccc2N1 [Clonazepam]
[1]; [4]
  Average [meropenem]: 0.05 mg/L
[1]; [5]
  [meropenem] (mg/L) Replicates 1: 0.06 mg/L
[1]; [6]
  [meropenem] (mg/L) Replicates 2: 0.06 mg/L
[1]; [7]
  [meropenem] (mg/L) Replicates 3: 0.01 mg/L

## CNCC(O)c1ccc(O)c(O)c1 (centres unmarked) [Adrenaline]
[1]; [4]
  Average [meropenem]: -0.10 mg/L
[1]; [5]
  [meropenem] (mg/L) Replicates 1: 0.06 mg/L
[1]; [6]
  [meropenem] (mg/L) Replicates 2: -0.37 mg/L
[1]; [7]
  [meropenem] (mg/L) Replicates 3: 0.00 mg/L

## CO/N=C(\C(=O)N[C@@H]1C(=O)N2C(C(=O)O)=C(CSc3nc(=O)c(O)nn3C)CS[C@H]12)c1csc(N)n1 [Ceftria ®]
[2]
  hydrolysis rate symbol, (Vmax/V0)-1: +++ (10-100)
[3]; [9]
  Accuracy <> (average): 112%
  [Meropenem] <> (average): 1.3 mg/L
  Accuracy Replicate 1: 105%
  [Meropenem] Replicate 1: 1.2 mg/L
  Accuracy Replicate 2: 111%
  [Meropenem] Replicate 2: 1.3 mg/L
  Accuracy Replicate 3: 112%
  [Meropenem] Replicate 3: 1.3 mg/L
  Accuracy Replicate 4: 116%
  [Meropenem] Replicate 4: 1.3 mg/L
  Accuracy Replicate 5: 113%
  [Meropenem] Replicate 5: 1.3 mg/L
[3]; [10]
  Accuracy <> (average): 95%
  [Meropenem] <> (average): 21.1 mg/L
  Accuracy Replicate 1: 100%
  [Meropenem] Replicate 1: 22.3 mg/L
  Accuracy Replicate 2: 96%
  [Meropenem] Replicate 2: 21.4 mg/L
  Accuracy Replicate 3: 96%
  [Meropenem] Replicate 3: 21.4 mg/L
  Accuracy Replicate 4: 90%
  [Meropenem] Replicate 4: 20.0 mg/L
  Accuracy Replicate 5: 91%
  [Meropenem] Replicate 5: 20.4 mg/L

## CC(C)(C)NCC(O)c1ccc(O)c(CO)c1 (centres unmarked) [Salbutamol]
[1]; [4]
  Average [meropenem]: 0.09 mg/L
[1]; [5]
  [meropenem] (mg/L) Replicates 1: 0.16 mg/L
[1]; [6]
  [meropenem] (mg/L) Replicates 2: 0.07 mg/L
[1]; [7]
  [meropenem] (mg/L) Replicates 3: 0.05 mg/L

## COC(=O)C1=C(C)NC(C)=C(C(=O)OCCN(C)Cc2ccccc2)C1c1cccc([N+](=O)[O-])c1 (centres unmarked) [Rydene]
[1]; [4]
  Average [meropenem]: 0.04 mg/L
[1]; [5]
  [meropenem] (mg/L) Replicates 1: 0.06 mg/L
[1]; [6]
  [meropenem] (mg/L) Replicates 2: 0.00 mg/L
[1]; [7]
  [meropenem] (mg/L) Replicates 3: 0.06 mg/L

## C=CC[C@@H]1/C=C(\C)C[C@H](C)C[C@H](OC)[C@H]2O[C@@](O)(C(=O)C(=O)N3CCCC[C@H]3C(=O)O[C@H](/C(C)=C/[C@@H]3CC[C@@H](O)[C@H](OC)C3)[C@H](C)[C@@H](O)CC1=O)[C@H](C)C[C@@H]2OC.O [Prograft]
[1]
  [meropenem] (mg/L) Replicates 1: -0.07 mg/L
  [meropenem] (mg/L) Replicates 2: -0.06 mg/L
  [meropenem] (mg/L) Replicates 3: -0.02 mg/L
[1]; [8]
  Average [meropenem]: -0.05 mg/L

## CN1CC[C@]23c4c5ccc(O)c4O[C@H]2[C@@H](O)C=C[C@H]3[C@H]1C5 [Morphine]
[1]; [4]
  Average [meropenem]: -0.13 mg/L
[1]; [5]
  [meropenem] (mg/L) Replicates 1: -0.12 mg/L
[1]; [6]
  [meropenem] (mg/L) Replicates 2: -0.15 mg/L
[1]; [7]
  [meropenem] (mg/L) Replicates 3: -0.10 mg/L

## CC[C@@H](C(N)=O)N1CCCC1=O [Keppra]
[1]; [4]
  Average [meropenem]: -0.07 mg/L
[1]; [5]
  [meropenem] (mg/L) Replicates 1: -0.07 mg/L
[1]; [6]
  [meropenem] (mg/L) Replicates 2: -0.07 mg/L
[1]; [7]
  [meropenem] (mg/L) Replicates 3: -0.06 mg/L

## NC[C@H](O)c1ccc(O)c(O)c1 [Noradrenaline]
[1]; [4]
  Average [meropenem]: -0.11 mg/L
[1]; [5]
  [meropenem] (mg/L) Replicates 1: -0.12 mg/L
[1]; [6]
  [meropenem] (mg/L) Replicates 2: -0.12 mg/L
[1]; [7]
  [meropenem] (mg/L) Replicates 3: -0.08 mg/L

## Cc1ncc2n1-c1ccc(Cl)cc1C(c1ccccc1F)=NC2 [Midazolam Braun]
[1]
  [meropenem] (mg/L) Replicates 1: -0.07 mg/L
  [meropenem] (mg/L) Replicates 2: -0.09 mg/L
  [meropenem] (mg/L) Replicates 3: -0.06 mg/L
[1]; [8]
  Average [meropenem]: -0.07 mg/L
